According to paper PMC3692405, “Disease-associated mutations in CNGB3 promote cytotoxicity in photoreceptor-derived cells” (Molecular Vision, 2013):

Assays:
[1] = test system: channel-transfected 661W cells; experiment: LDH-release cytotoxicity assay, channel-transfected cells; format: cell-based, mouse; settings: CPT-cAMP alone, 0.1 to 10 µM; data not shown
Experimental: The mouse photoreceptor 661W cell line used in this study was generously provided by Dr. Al-Ubaidi (University of Oklahoma Health Sciences Center, Oklahoma City, OK). The 661W cells were routinely maintained in Dulbecco’s modified Eagle’s medium (Gibco, Carlsbad, CA), supplemented with 10% fetal bovine serum (Gemini Bioproducts, Sacramento, CA) and 1% penicillin/streptomycin (Gibco), at 37 °C in a humidified incubator with 5% CO2; cells were subcultured every 3–5 days. The 661W cells were transfected with pOPRSVI plasmids encoding human cone CNG channel subunits using Lipofectamine™ 2000 and OptiMEM (Life Technologies, Carlsbad, CA) according to the manufacturer’s protocol for cells in suspension. […]
For most experiments, the LDH Cytotoxicity Detection Kit (Roche Applied Science) was used according to the manufacturer’s protocol (see also [37]). […] Following treatment, half of the culture medium was transferred to another 96-well plate and the LDH released into the culture medium was measured to assess the number of damaged/dead cells. Cells in the original plate were then lysed and the total amount of cellular LDH was assessed. The percentage cytotoxicity was then calculated from the ratio of LDH concentration in the medium/cells, and was normalized to the percentage cytotoxicity in untreated cells transfected with control pOPRSVI plasmid only.

[2] = target: T1, homomeric CNGA3-only channels (Homo sapiens, UniProt Q16281); experiment: Inside-out patch-clamp recording of channels expressed in Xenopus oocytes (CNGA3 only); format: biochemical; settings: +80 mV, Hill fit, mean±SEM, n=9
T1 construct: expressed in transfected cells; host or cells: Xenopus laevis oocytes injected with cRNA transcribed from pGEMHE constructs
T1 sequence (Q16281 1-694): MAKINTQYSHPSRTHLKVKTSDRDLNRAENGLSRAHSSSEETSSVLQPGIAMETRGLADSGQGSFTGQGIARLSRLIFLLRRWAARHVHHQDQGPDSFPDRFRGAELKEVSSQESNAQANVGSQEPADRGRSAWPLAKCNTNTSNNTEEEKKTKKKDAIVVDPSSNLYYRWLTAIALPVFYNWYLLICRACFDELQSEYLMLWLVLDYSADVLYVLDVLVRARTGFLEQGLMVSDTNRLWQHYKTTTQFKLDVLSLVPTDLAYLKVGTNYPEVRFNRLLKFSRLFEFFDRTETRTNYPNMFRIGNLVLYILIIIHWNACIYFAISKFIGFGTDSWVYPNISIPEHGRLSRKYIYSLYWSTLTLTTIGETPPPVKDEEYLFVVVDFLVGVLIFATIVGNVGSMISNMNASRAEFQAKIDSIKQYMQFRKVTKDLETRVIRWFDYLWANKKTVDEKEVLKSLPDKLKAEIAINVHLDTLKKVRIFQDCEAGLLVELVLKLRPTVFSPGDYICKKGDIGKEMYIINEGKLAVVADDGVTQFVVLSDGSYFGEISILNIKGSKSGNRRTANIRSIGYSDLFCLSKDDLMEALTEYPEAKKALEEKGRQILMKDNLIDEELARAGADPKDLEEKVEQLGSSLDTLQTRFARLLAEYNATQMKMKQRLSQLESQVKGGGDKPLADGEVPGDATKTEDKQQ
Experimental: For heterologous expression in Xenopus laevis oocytes, identical amounts of cDNA were linearized using SphI or NheI, and capped cRNA was transcribed in vitro using the T-7 RNA polymerase mMESSAGE mMACHINE® kit (Ambion, Austin, TX). cRNA concentrations and relative amounts were determined by denaturing gel electrophoresis and KODAK 1D image analysis software (Rochester, NY), as well as by spectrophotometry. […] Oocytes were incubated in ND96 (96 mM NaCl, 2 mM KCl, 1.8 mM CaCl2, 1 mM MgCl2, and 5 mM HEPES, pH 7.6, supplemented with 10 μg/ml gentamycin).
Two to seven days after microinjection of cRNA, patch-clamp experiments were performed using the inside-out configuration with an Axopatch 200B amplifier (Axon Instruments, Foster City, CA). Recordings were made at 20–23 °C. Data were acquired using Pulse software (HEKA Elektronik, Lambrecht, Germany). Current traces were elicited by voltage steps from a holding potential of 0 mV to +80 mV, then to −80 mV and back to 0 mV. […] We measured sensitivity to block by L-cis-diltiazem (RBI, Natick, MA) applied to the intracellular face of the patch in the presence of 0.1 μM CPT-cGMP. […] Data were analyzed using Igor (Wavemetrics, Lake Oswego, OR), SigmaPlot, and SigmaStat (Systat Software Inc., San Jose, CA). […] Statistical significance was determined using a Student t test or Mann–Whitney rank sum test, and a p value of <0.05 was considered significant.

Row | Compound | effect on relative cytotoxicity [1] | Hill slope h, CPT-cGMP activation [2] | EC50 ([2]; read-out: apparent CPT-cGMP affinity K1/2, CPT-cGMP (channel activation)) [µM]
1 | Nc1ncnc2c1nc(Sc1ccc(Cl)cc1)n2[C@@H]1O[C@@H]2COP(=O)(O)O[C@H]2[C@H]1O [CPT-cAMP, CPT-adenosine 3′,5′-cyclic monophosphate] | no significant increase in relative cytotoxicity |  | 
2 | Nc1nc2c(nc(Sc3ccc(Cl)cc3)n2[C@@H]2O[C@@H]3COP(=O)(O)O[C@H]3[C@H]2O)c(=O)[nH]1 [CPT-cGMP, 8-(4-chlorophenylthio) guanosine 3′,5′-cyclic monophosphate] |  | 2.2±0.1 | 0.114 ± 0.0079
